Among the data in ChEMBL document CHEMBL3507680, “University of Dundee, Gates Library screen for HepG2 cell viability” are cytotoxicity values, retold here.

The nature of this data set: Human HepG2 cell viability assay in 384 well format. The class given is toxicity, cell-based. Further details: dose 125 nL, time 70.5 hour; cytotoxicity at 70.5 h: concentration not given beside the values. Particulars: HepG2 cells, read-out: Inhibition.

Turning to `CC(=O)c1cc(CC(=O)N2CCN(CCOc3ccccc3)CC2)cs1`, the cytotoxicity at 70.5 h was -1.31%.

Turning to `CCCN1CCCC2(CCN(S(=O)(=O)N3CCC(OC)CC3)C2)C1=O` (stereo not drawn), the cytotoxicity at 70.5 h is -1.84%.

In the case of `CN(Cc1ccco1)c1ccc(C(=O)NCCCc2ccccn2)cn1`, the cytotoxicity at 70.5 h came out at 0.076%.

Consider `Fc1ccccc1CN1CCCN(c2ncnc3[nH]ccc23)CC1`, for which the cytotoxicity at 70.5 h is -24%.

For `CCCn1ccnc1CN1C[C@@H](CN2CCCN(C)CC2)[C@@H](CO)C1`, the cytotoxicity at 70.5 h is -9.5%.

Regarding `CC(C)N1CCC2(CC1)CC(=O)N(Cc1cc(F)cc(F)c1)C2`, the cytotoxicity at 70.5 h was -2.98%.

For `CC(C)c1cc(NCC(O)c2ccccn2)n2nccc2n1` (stereo not drawn), the cytotoxicity at 70.5 h was -8.96%.

As for `Cc1sc2ncnc(N3CCC(N(C)Cc4cnn(C)c4)CC3)c2c1C`, the cytotoxicity at 70.5 h worked out at 0.374%.

For `Cc1nsc(NC(=O)NC2(CN3CCOCC3)CCCC2)n1`, the cytotoxicity at 70.5 h is -8.03%.

As to `CCc1ccc(CN(CCN(C)C)Cc2ccc(C)s2)nc1`, the cytotoxicity at 70.5 h was -5.3%.

Turning to `O=C1CC(NCc2ncc[nH]2)CN1CCc1cccc(Cl)c1` (stereo not drawn), the cytotoxicity at 70.5 h was -8.16%.

Turning to `CCCn1ncc(C(=O)NC2CCN(C3CCOCC3)CC2)c1C`, the cytotoxicity at 70.5 h was -2.11%.

With `O=C(c1cc2c(s1)CCCCC2)N1CCC(c2ncc[nH]2)CC1`, the cytotoxicity at 70.5 h worked out at 1.98%.

For `Cc1nc[nH]c1CN(C)Cc1cnn(-c2ccc(F)cc2)c1`, the cytotoxicity at 70.5 h turned out to be 28.9%.

Consider `O=C(O)[C@@H]1CN(C(=O)CCN2CCCCC2)C[C@H]1c1ccccc1`, for which the cytotoxicity at 70.5 h is -5.31%.

For the compound `Cc1ncc(CC(=O)N2CCCC(COc3ccc(F)cc3)C2)c(=O)[nH]1` (stereo not drawn), the cytotoxicity at 70.5 h turned out to be 2.89%.

For the compound `CC(C)[C@H](NC(=O)c1cccc(CCC(C)(C)O)c1)C(N)=O`, the cytotoxicity at 70.5 h is -2.04%.

In the case of `CCS(=O)(=O)N1CCC(c2nnc(CN3CCCCCC3)n2C)CC1`, the cytotoxicity at 70.5 h was -3.73%.

With `c1cc(-c2ccc(CN3CCCC4(CCNC4)C3)s2)[nH]n1` (stereo not drawn), the cytotoxicity at 70.5 h amounted to 1.71%.

In the case of `CCc1nn(C)c(Cl)c1CN1CCC2(C1)CN(C)C(=O)O2` (stereo not drawn), the cytotoxicity at 70.5 h was -17.2%.

Turning to `Cc1ccc(N2CCN(C(=O)C(O)c3cccc(Cl)c3)CC2=O)cc1` (stereo not drawn), the cytotoxicity at 70.5 h is -5.15%.

Turning to `O=C1NCC(CN2CCc3onc(-c4ccc(C(F)(F)F)cc4)c3C2)O1` (stereo not drawn), the cytotoxicity at 70.5 h is -17.3%.

With `Cc1ccc(CCNc2nccc(-c3cc(C(=O)O)ccn3)n2)o1`, the cytotoxicity at 70.5 h is -6.22%.

With `CC(C)(C(=O)NCC1CCN(Cc2cccnc2)C1)c1ccccc1` (stereo not drawn), the cytotoxicity at 70.5 h was -4.33%.

Consider `O=C(NC1CCNCC1)C1(N2CCCCC2)Cc2ccccc2C1`, for which the cytotoxicity at 70.5 h came to 13.5%.

Regarding `CCNC(=O)C1CCN(c2nccc(C3CCCC3)n2)C1` (stereo not drawn), the cytotoxicity at 70.5 h is -17.7%.

For the compound `Cc1ccc(NC2CCCN(CCCc3ccccc3)C2)nn1` (stereo not drawn), the cytotoxicity at 70.5 h is 30.2%.

On to `CCSCCn1c(=O)n(Cc2ccc(F)cc2)c2ncc(C(=O)O)cc21`, for which the cytotoxicity at 70.5 h is -4.52%.

For the compound `CCc1ccc(CN2CCN(c3ccc(C(N)=O)cn3)CC2)nc1`, the cytotoxicity at 70.5 h was found to be 2.82%.

Take `C[C@@H]1CN(C(=O)C2(Cn3cccn3)CC2)CC[C@@]1(O)C1CC1`: the cytotoxicity at 70.5 h is 26.3%.

Regarding `CN(C)C(=O)N1C[C@@H]2CC[C@H](C1)N(S(=O)(=O)c1cccnc1)C2`, the cytotoxicity at 70.5 h is -9.57%.

As to `CCc1ccc(C2CC(=O)Nc3n[nH]cc32)o1` (stereo not drawn), the cytotoxicity at 70.5 h came to 0.796%.

`CC(C)(O)CCc1cccc(C(=O)N2CCC3(CCOCC3)CC2)c1`: the cytotoxicity at 70.5 h is -2.42%.

With `CC(C)n1ccnc1CNC(=O)c1cccc(CCC(C)(C)O)c1`, the cytotoxicity at 70.5 h is -10.5%.

In the case of `CN(Cc1nc(-c2cccnc2)no1)C(=O)c1cccn1C`, the cytotoxicity at 70.5 h came out at 53.7%.

For the compound `CC(=O)N[C@@H]1CN(Cc2nc3ccccc3[nH]2)C[C@H]1c1ccc(C)o1`, the cytotoxicity at 70.5 h is -8.75%.

As for `CC(Cc1ccc2c(c1)OCO2)c1cn(CCN2CCCC2)nn1` (stereo not drawn), the cytotoxicity at 70.5 h is -12%.

On to `Cc1nnc(CN(C)CC2(O)CCCN(CCC3CCCCC3)C2=O)o1` (stereo not drawn), for which the cytotoxicity at 70.5 h was 2.51%.

For the compound `Cc1cc(C)nc(N2CCCC(c3nccn3CCCN(C)C)C2)c1` (stereo not drawn), the cytotoxicity at 70.5 h is -13.7%.

On to `Cc1ccccc1CCC1CCCN(C(=O)Cc2cc(=O)[nH]c(N)n2)C1` (stereo not drawn), for which the cytotoxicity at 70.5 h is 10.8%.

Consider `CN(Cc1ccccc1Cl)C(C(=O)O)c1ccc(F)c(CO)c1` (stereo not drawn), for which the cytotoxicity at 70.5 h is -7.98%.

Regarding `OC1CCN(c2ccnc(NCCN3CCc4ccccc4C3)n2)C1` (stereo not drawn), the cytotoxicity at 70.5 h is -13.9%.

Regarding `O=C(c1coc(COc2cccc3cnccc23)n1)N1CCCCCC1`, the cytotoxicity at 70.5 h is -1.27%.

Turning to `O=C(Nc1ccc(I)cc1C(=O)NCCN1CCOCC1)c1ccco1`, the cytotoxicity at 70.5 h is 8.88%.

With `O=C(O)C(c1cccc2c1OCC2)N1CCC(N2CCSCC2)CC1` (stereo not drawn), the cytotoxicity at 70.5 h was 0.963%.

For `Cc1ccsc1CCNC(=O)C1(Oc2cccnc2C)CCNCC1`, the cytotoxicity at 70.5 h was -10.2%.

`CC(C)=CCC1(C(=O)O)CCCN(CCC(=O)NC2CC2)C1` (stereo not drawn): the cytotoxicity at 70.5 h is -25.9%.

With `C=C(C)COc1ccccc1CN1CCCC(C(=O)NCCCO)C1` (stereo not drawn), the cytotoxicity at 70.5 h is -8.32%.

Consider `CN1CC2(CCN(C(=O)c3ccc(=O)n(C)c3)CC2)CC1=O`, for which the cytotoxicity at 70.5 h came out at 18.9%.

For the compound `CC(C)[C@@H]1CN(Cc2ccccc2C#N)C[C@H]1C(=O)O`, the cytotoxicity at 70.5 h stood at 21%.

Regarding `COCCNC(=O)c1cnc(C)nc1C`, the cytotoxicity at 70.5 h came out at 34.7%.

As for `COc1ccc(C(=O)N2CCC(C3CCN(c4ncccn4)CC3)C2)o1` (stereo not drawn), the cytotoxicity at 70.5 h was found to be 2.75%.

As to `CC(=O)NCc1nc(Cc2cccc(Cl)c2)nn1C1CCN(C)CC1`, the cytotoxicity at 70.5 h stood at 6.7%.

In the case of `OCc1csc(N2CCCN(Cc3ccc(F)cc3)CC2)n1`, the cytotoxicity at 70.5 h worked out at 2.55%.

For the compound `Cc1ccc(F)cc1-n1c(CN(C)S(C)(=O)=O)n[nH]c1=O`, the cytotoxicity at 70.5 h was -8.73%.

On to `CCCc1cc(N2CCC(NCC3(O)CCCCC3)CC2)nc(C)n1`, for which the cytotoxicity at 70.5 h was -8.99%.

Consider `Cc1nc[nH]c1-c1nnc(SCC(=O)O)n1-c1ccccc1C(F)(F)F`, for which the cytotoxicity at 70.5 h was -6.65%.

As for `Cn1nc(CN2CCC(c3ccncc3)CC2)c2c(Cl)cccc21`, the cytotoxicity at 70.5 h is -0.977%.

Regarding `CC(C)c1cc(NC(CCO)c2ccccc2)n2nccc2n1` (stereo not drawn), the cytotoxicity at 70.5 h is 3.68%.

In the case of `Cc1nc(CNC(=O)c2ccc3c(c2)nc(N2CCOCC2)n3C)cs1`, the cytotoxicity at 70.5 h is -5.03%.

On to `COc1cc(NC2CCN(C3CCS(=O)(=O)CC3)CC2)ncn1`, for which the cytotoxicity at 70.5 h was -20.6%.

Regarding `CN(CC1COc2ccccc2O1)C(=O)c1ccc(-c2cn[nH]c2)nc1` (stereo not drawn), the cytotoxicity at 70.5 h was -2.63%.

On to `CC(CCc1ccc(O)cc1)NC1CCN(C(=O)C(C)C)CC1` (stereo not drawn), for which the cytotoxicity at 70.5 h was -11.4%.

On to `Cc1nn(CC(=O)N2CCC3(CN(C)C(=O)O3)C2)c(=O)c2ccccc12` (stereo not drawn), for which the cytotoxicity at 70.5 h was -15%.

For the compound `COc1ccc([C@@H]2CN(C(=O)CCCc3cn[nH]c3)C[C@H]2N(C)C)cc1`, the cytotoxicity at 70.5 h was found to be 9.02%.

Consider `CC(C)N1CCOC(CC(=O)N2CC(c3ccncc3)C2)C1` (stereo not drawn), for which the cytotoxicity at 70.5 h is -2.68%.

In the case of `O[C@@]1(CNCC2(Cn3ccnc3)CC2)CCCN2CCCC[C@@H]21`, the cytotoxicity at 70.5 h was -13.1%.

Regarding `C=C(C)COc1ccccc1C(=O)NCCc1nncn1C`, the cytotoxicity at 70.5 h was determined as 25.1%.

In the case of `CCCc1nnc(N(C)CC2CCN(CC(C)C)C2)o1` (stereo not drawn), the cytotoxicity at 70.5 h is -1.56%.

For `O=C(O)c1ccnc(-c2ccnc(N3CCCCCC3)n2)c1`, the cytotoxicity at 70.5 h is 17.6%.

On to `CCCC1(CO)CCCN(c2ncnc3c2c(C)nn3C)C1` (stereo not drawn), for which the cytotoxicity at 70.5 h was -3.54%.

`CC(O)C(=O)N1CCN(c2ccccc2Cl)C(=O)C1` (stereo not drawn): the cytotoxicity at 70.5 h turned out to be 17%.

As to `Fc1ccc(C2(CNCC(F)F)CCOC2)cc1` (stereo not drawn), the cytotoxicity at 70.5 h is -2.85%.

In the case of `NC(=O)c1ccc(C2CCCN2C(=O)CCc2nc3ccccc3s2)s1` (stereo not drawn), the cytotoxicity at 70.5 h was -1.87%.

Regarding `O=C(c1cscn1)N1CCC(Cn2cc(-c3ccsc3)nn2)CC1`, the cytotoxicity at 70.5 h was -8.02%.

As to `Cc1[nH]c2c(F)cccc2c1CC(=O)N1CCCC(N)CC1` (stereo not drawn), the cytotoxicity at 70.5 h was 14.1%.

Turning to `Cc1ccc(CNC(=O)c2ccc(S(=O)(=O)N3C[C@@H]4C[C@H]3CN4)cc2)o1`, the cytotoxicity at 70.5 h is -2.7%.

Regarding `O=C1CC2(CCN(CCCF)CC2)CN1Cc1cc(F)cc(F)c1`, the cytotoxicity at 70.5 h was 8.23%.

As for `c1csc(CCC2CCCCN2Cc2noc(C3CC3)n2)c1` (stereo not drawn), the cytotoxicity at 70.5 h was -13%.

Take `CC(C)c1nnc2sc(CC3CCS(=O)(=O)C3)nn12` (stereo not drawn): the cytotoxicity at 70.5 h is -7.56%.

`COc1ccc(F)c(F)c1CN1CCC2(CC1)[C@H](O)C[C@@H]2OCCN`: the cytotoxicity at 70.5 h is -7.39%.

For `CCCC1COCCN1Cc1ccc(S(=O)(=O)NC)cc1` (stereo not drawn), the cytotoxicity at 70.5 h stood at 7.3%.

With `CCN(CC)CCCN1CCN(c2nc(C)cnc2C)CC1`, the cytotoxicity at 70.5 h is -7.19%.

`CCc1ccc(CN(C)c2cc(COC)nc3ccnn23)cc1`: the cytotoxicity at 70.5 h was -2.38%.

Take `CC(C)c1cccc(N2CCCC3(CCC(=O)N(C4CC4)C3)C2)n1` (stereo not drawn): the cytotoxicity at 70.5 h is -1.84%.

Turning to `O=C1CC2(CCN(Cc3ccc(Cl)s3)C2)C(=O)N1` (stereo not drawn), the cytotoxicity at 70.5 h is -9.8%.

Turning to `COCc1ncc(CN(CCN(C)C)Cc2ccc(C)s2)cn1`, the cytotoxicity at 70.5 h was -4.43%.

Consider `CCCn1ncnc1C(C)NC(=O)CC1CCN(C(C)C)CC1` (stereo not drawn), for which the cytotoxicity at 70.5 h was -4.86%.

In the case of `Cc1ccc(N2CCC(N3C[C@@H](CN(C)C)[C@@H](CO)C3)CC2)cc1`, the cytotoxicity at 70.5 h was -6.07%.

In the case of `O=C(CC1CCc2ccccc21)N1CCC(O)(c2cccnc2)CC1` (stereo not drawn), the cytotoxicity at 70.5 h was -9.82%.

As for `O=C1O[C@@H]2CN(CCc3ccccc3)C[C@@H]2N1CCCN1CCOCC1`, the cytotoxicity at 70.5 h was -3.23%.

On to `O=C(COCC(F)(F)C(F)F)N1CCC2(CCCN(CC3CC3)C2=O)C1` (stereo not drawn), for which the cytotoxicity at 70.5 h was -8.88%.

In the case of `O=C(O)C(c1ccc2c(c1)OCO2)N1CCCC1` (stereo not drawn), the cytotoxicity at 70.5 h is -0.492%.

As for `Cc1nc[nH]c1C(=O)N1CCCC2(CN(C)C(=O)O2)C1` (stereo not drawn), the cytotoxicity at 70.5 h was -0.146%.

For `COCCCC1(CO)CCCN(C(=O)c2cnc(C3CC3)nc2)C1` (stereo not drawn), the cytotoxicity at 70.5 h is -4.81%.

Regarding `COc1ccc(F)c(-c2cc(O)nc(N)n2)c1`, the cytotoxicity at 70.5 h was -9.12%.

Turning to `CCCN(Cc1cccnc1)Cc1ccc(C2CCCCO2)o1` (stereo not drawn), the cytotoxicity at 70.5 h is -2.3%.

As to `COCCN1CC(c2nc(CC3CCN(C)CC3)no2)CCC1=O` (stereo not drawn), the cytotoxicity at 70.5 h was -11.5%.
